Assay results from patent US10226045B2, “Azoline compounds” (priority 2014, dated 2019).

Legend:
Assay type in all cases: in vivo
[1] = system: Boll Weevil (Anthonomus grandis); experiment: Boll weevil, insect diet microtiter plate test; settings: 120 h, 2500 ppm, eggs on sprayed insect diet, egg and larval mortality after 5 days, in comparison with untreated controls, read-out: mortality
Description: B.5 Boll Weevil (Anthonomus grandis)
For evaluating control of boll weevil (Anthonomus grandis) the test unit consisted of 96-well-microtiter plates containing an insect diet and 5-10 A. grandis eggs.
(§1) The compounds were formulated using a solution containing 75% v/v water and 25% v/v DMSO. Different concentrations of formulated compounds were sprayed onto the insect diet at 5 μl, using a custom built micro atomizer, at two replications.
After application, microtiter plates were incubated at about 25±1° C. and about 75±5% relative humidity for 5 days. Egg and larval mortality was then visually assessed.

[2] = system: Vetch Aphid (Megoura viciae); experiment: Vetch aphid, broad bean leaf disk test; settings: foliar, 120 h, 2500 ppm, adult aphids on sprayed broad bean leaf disks, 5 days, in comparison with untreated controls, read-out: mortality
Description: B.3 Vetch Aphid (Megoura viciae)
For evaluating control of vetch aphid (Megoura viciae) through contact or systemic means the test unit consisted of 24-well-microtiter plates containing broad bean leaf disks.
The compounds were formulated using a solution containing 75% v/v water and 25% v/v DMSO. Different concentrations of formulated compounds were sprayed onto the leaf disks at 2.5 μl, using a custom built micro atomizer, at two replications.
After application, the leaf disks were air-dried and 5-8 adult aphids placed on the leaf disks inside the microtiter plate wells. The aphids were then allowed to suck on the treated leaf disks and incubated at about 23±1° C. and about 50±5% relative humidity for 5 days. Aphid mortality and fecundity was then visually assessed.

[3] = system: Red Spider Mite (Tetranychus kanzawai); experiment: Red spider mite, sprayed cowpea beans; settings: 300 ppm, mites on sprayed cowpea beans, 72 hours after treatment, in comparison with untreated controls, read-out: mortality
Description: B.9 Red Spider Mite (Tetranychus kanzawai)
The active compound was dissolved at the desired concentration in a mixture of 1:1 (vol:vol) distilled water:acetone. Add surfactant (Kinetic HV) was added at a rate of 0.01% (vol/vol). The test solution was prepared at the day of use.
Potted cowpea beans of 4-5 days of age were cleaned with tap water and sprayed with 1-2 ml of the test solution using air driven hand atomizer. The treated plants were allowed to air dry and afterwards inoculated with 30 or more mites by clipping a cassava leaf section from rearing population. Treated plants were placed inside a holding room at about 25-27° C. and about 50-60% relative humidity. Percent mortality was assessed 72 hours after treatment.

[4] = system: Mediterranean Fruitfly (Ceratitis capitata); experiment: Mediterranean fruitfly, insect diet microtiter plate test; settings: 120 h, 2500 ppm, eggs on sprayed insect diet, egg and larval mortality after 5 days, in comparison with untreated controls, read-out: mortality
Description: B.6 Mediterranean Fruitfly (Ceratitis capitata)
as §1, with “For evaluating control of Mediterranean fruitfly (CeratitiS capitata) the test unit consisted of microtiter plates containing an insect diet and 50-80 C. capitata eggs. The” for “The”
After application, microtiter plates were incubated at about 28±1° C. and about 80±5% relative humidity for 5 days. Egg and larval mortality was then visually assessed.

[5] = system: Rice Green Leafhopper (Nephotettix virescens); experiment: Rice green leafhopper, sprayed rice seedlings; settings: 300 ppm, adults on sprayed rice seedlings, after 72 hours, in comparison with untreated controls, read-out: mortality
Description: B.8 Rice Green Leafhopper (Nephotettix virescens)
Rice seedlings were cleaned and washed 24 hours before spraying. The active compounds were formulated in 1:1 acetone:water (vol:vol), and 0.01% vol/vol surfactant (Kinetic HV) was added. Potted rice seedlings were sprayed with 5-6 ml test solution, air dried, covered with Mylar cages cages and inoculated with 10 adults. Treated rice plants were kept at about 28-29° C. and relative humidity of about 50-60%. Percent mortality was recorded after 72 hours.

[6] = system: Green Peach Aphid (Myzus persicae); experiment: Green peach aphid, systemic test on artificial diet in microtiter plates; settings: 72 h, 2500 ppm, adult aphids on treated artificial diet, 3 days, in comparison with untreated controls, read-out: mortality
Source text: B.2 Green Peach Aphid (Myzus persicae)
For evaluating control of green peach aphid (Myzus persicae) through systemic means the test unit consisted of 96-well-microtiter plates containing liquid artificial diet under an artificial mem brane.
The compounds were formulated using a solution containing 75% v/v water and 25% v/v DMSO. Different concentrations of formulated compounds were pipetted into the aphid diet, using a custom built pipetter, at two replications.
After application, 5-8 adult aphids were placed on the artificial membrane inside the microtiter plate wells. The aphids were then allowed to suck on the treated aphid diet and incubated at about 23±1° C. and about 50±5% relative humidity for 3 days. Aphid mortality and fecundity was then visually assessed.

[7] = system: Brown Marmorated Stink Bug (Halyomorpha halys); experiment: Brown marmorated stink bug, sprayed peanuts and soybean seeds in cups; settings: 120 h, 100 ppm, adults on peanuts and soybean seeds, after 5 days, in comparison with untreated controls, read-out: mortality
Description: B.13 Brown Marmorated Stink Bug (Halyomorpha halys)
The active compound was dissolved at the desired concentration in a mixture of 1:1 (vol:vol) distilled water: acetone. Surfactant (Kinetic HV) was added at a rate of 0.01% (vol/vol). The test solution was prepared at the day of use.
Row peanuts and soybean seeds were placed into microwavable plastic cups and inoculated with five adult stage H. halys. Using a hand atomizer, approximately 1 ml solution is sprayed into each cup, insects and food present. A water source was provided (cotton wick with water). Each treatment is replicated 4-fold. Assay arenas are kept at about 25° C. Percent mortality was recorded after 5 days.

[8] = system: Orchid Thrips (dichromothrips corbetti); experiment: Orchid thrips, floral-immersion technique; settings: 300 ppm; adult thrips on dipped orchid petals; 72 hours after treatment; in comparison with untreated controls; read-out: mortality
Description: B.7 Orchid Thrips (dichromothrips corbetti)
Dichromothrips corbetti adults used for bioassay were obtained from a colony maintained continuously under laboratory conditions. For testing purposes, the test compound is diluted in a 1:1 mixture of acetone:water (vol:vol), plus Kinetic HV at a rate of 0.01% v/v.
Thrips potency of each compound was evaluated by using a floral-immersion technique. All petals of individual, intact orchid flowers were dipped into treatment solution and allowed to dry in Petri dishes. Treated petals were placed into individual re-sealable plastic along with about 20 adult thrips. All test arenas were held under continuous light and a temperature of about 28° C. for duration of the assay. After 3 days, the numbers of live thrips were counted on each petal. The percent mortality was recorded 72 hours after treatment.

[9] = system: Diamond Back Moth (Plutella xylostella); experiment: Diamond back moth, cabbage leaf dip test; settings: foliar, 300 ppm, 3rd instar larvae on dipped cabbage leaves, 72 hours after treatment, in comparison with untreated controls, read-out: mortality
Description: B.1 Diamond Back Moth (Plutella xylostella)
The active compound was dissolved at the desired concentration in a mixture of 1:1 (vol:vol) distilled water:aceteone. Surfactant (Kinetic HV) was added at a rate of 0.01% (vol/vol). The test solution was prepared at the day of use.
Leaves of cabbage were dipped in test solution and air-dried. Treated leaves were placed in petri dishes lined with moist filter paper and inoculated with ten 3rd instar larvae. Mortality was recorded 72 hours after treatment.

O=C(NC1CS(=O)(=O)C1)c1ccc(C2=NCC(c3cc(Cl)c(F)c(Cl)c3)(C(F)(F)F)C2)c2c1CCC2 (stereo not drawn) [Compound 2-3, 7-[3-(3,5-Dichloro-4-fluoro-phenyl)-3-(trifluoromethyl)-2,4-dihydropyrrol-5-yl]-N-(1,1-dioxothietan-3-yl)indane-4-carboxamide]
≥ 75%: mortality at 2500 ppm [1] | mortality at 2500 ppm [2] | mortality at 300 ppm [3] | mortality at 2500 ppm [4] | mortality at 300 ppm [5] | mortality at 2500 ppm [6] | mortality at 100 ppm [7] | mortality at 300 ppm [8] | mortality at 300 ppm [9]
